From patent US20220184008A1, “MODULATORS OF INTRACELLULAR CHLORIDE CONCENTRATION” (FONDAZIONE ISTITUTO ITALIANO DI TECNOLOGIA, priority 2019, published 2022)

How the values were obtained:
[1] = tested on: NKCC1; assay: Calcium kinetic assay in primary cultures of immature hippocampal neurons; type: cell-based; details: for NKCC1 Inhibition % 10 μM Neurons Calcium kinetic assay: immature neurons 3 DIV
[2] = target: T1, NKCC1 (Homo sapiens, UniProt P55011); assay: Chloride kinetic assay (Cl-sensitive YFP) in NKCC1-transfected HEK293 cells; type: cell-based; details: for NKCC1 Inhibition % 10 μM HEK Chloride YFP assay / inhibition at 10 µM: NKCC1-transfected HEK293; for inhibition at 10 µM: read-out: NKCC1 Inhibition % 10 μM HEK Chloride YFP assay
T1 construct: expressed in transfected cells; host or cells: HEK293
T1 sequence (P55011 1-1212): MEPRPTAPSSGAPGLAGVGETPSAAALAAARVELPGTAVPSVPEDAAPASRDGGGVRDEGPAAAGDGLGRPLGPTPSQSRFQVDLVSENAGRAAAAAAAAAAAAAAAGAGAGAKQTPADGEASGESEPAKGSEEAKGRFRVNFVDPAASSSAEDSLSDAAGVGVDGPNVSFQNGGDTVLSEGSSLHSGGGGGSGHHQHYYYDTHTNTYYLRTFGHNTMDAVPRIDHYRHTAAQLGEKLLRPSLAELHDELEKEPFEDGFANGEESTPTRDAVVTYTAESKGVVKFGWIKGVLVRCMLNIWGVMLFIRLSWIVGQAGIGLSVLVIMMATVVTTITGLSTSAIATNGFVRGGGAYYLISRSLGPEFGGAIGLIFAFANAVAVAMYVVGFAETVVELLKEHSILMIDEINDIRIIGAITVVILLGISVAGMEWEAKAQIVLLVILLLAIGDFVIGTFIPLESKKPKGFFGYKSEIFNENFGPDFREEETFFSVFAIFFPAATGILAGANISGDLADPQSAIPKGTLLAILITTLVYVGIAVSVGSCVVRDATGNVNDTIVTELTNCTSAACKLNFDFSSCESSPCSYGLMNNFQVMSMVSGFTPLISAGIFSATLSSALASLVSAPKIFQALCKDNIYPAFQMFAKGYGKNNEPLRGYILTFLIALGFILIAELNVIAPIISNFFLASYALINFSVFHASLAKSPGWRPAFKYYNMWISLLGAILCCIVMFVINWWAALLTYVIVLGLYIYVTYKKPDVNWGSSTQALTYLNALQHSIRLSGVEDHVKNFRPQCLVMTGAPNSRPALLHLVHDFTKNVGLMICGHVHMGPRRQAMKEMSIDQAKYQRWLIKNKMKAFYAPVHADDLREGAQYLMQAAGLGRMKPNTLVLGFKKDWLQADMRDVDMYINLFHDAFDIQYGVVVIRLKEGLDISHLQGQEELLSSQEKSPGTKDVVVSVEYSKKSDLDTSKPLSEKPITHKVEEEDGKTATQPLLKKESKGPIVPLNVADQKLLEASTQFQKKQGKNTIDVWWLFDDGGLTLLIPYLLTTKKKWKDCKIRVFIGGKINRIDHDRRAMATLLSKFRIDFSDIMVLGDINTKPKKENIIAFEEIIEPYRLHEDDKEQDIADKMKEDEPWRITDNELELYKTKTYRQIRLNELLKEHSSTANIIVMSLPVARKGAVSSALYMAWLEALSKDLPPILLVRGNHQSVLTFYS

SMILES | NKCC1 Inhibition % 10 μM Neurons Calcium kinetic assay ([1]; Table 1) | NKCC1 Inhibition % 10 μM Neurons Calcium kinetic assay ([1]; Table 2) | NKCC1 Inhibition % 10 μM HEK Chloride YFP assay ([2]; Table 1) | NKCC1 Inhibition % 10 μM HEK Chloride YFP assay ([2]; Table 2) | inhibition at 10 µM ([2]; Table 1) | fluorescence increase upon GABA application compared with vehicle (DMSO)-treated controls ([1]; GABA 100 μM, normalized to KCl) | effect on decrease in fluorescence upon NaCl application in NKCC1-transfected cells ([2]; pre-incubation at 10 μM and 100 μM) | NKCC1 inhibition compared with bumetanide and furosemide ([2]; 100 μM)
CNS(=O)(=O)c1cc(C(=O)O)ccc1NCCC(C)(C)C [Compound 3.9, 4-(3,3-dimethylbutylamino)-3-(methylsulfamoyl)benzoic acid] | 14% | 14% | Inactive | Inactive |  |  |  | 
CCCCCCCCNc1ccc(C(=O)O)cc1S(N)(=O)=O [Compound 2.8, 4-(octylamino)-3-sulfamoyl-benzoic acid] | 3% | 3% |  |  | 5% |  |  | 
CCCCCCNc1ccc(C(=O)O)cc1S(=O)(=O)NC [Compound 3.7, 4-(hexylamino)-3-(methylsulfamoyl)benzoic acid] | 7% | 7% | Inactive | Inactive |  |  |  | 
CCCCCCCCNc1ccc(C(=O)O)cc1S(=O)(=O)NC [Compound 3.8, 3-(methylsulfamoyl)-4-(octylamino)benzoic acid] | 20% | 20% |  |  | 16% |  |  | 
CCCCNc1cc(C(=O)O)cc(S(N)(=O)=O)c1Oc1ccccc1 [Bumetanide, reference compound] | 52% | 52% |  |  | 54% | significantly reduced | significantly reduced | 
CCCCNc1ccc(C(=O)O)cc1S(N)(=O)=O [Compound 2.6, 4-(butylamino)-3-sulfamoyl-benzoic acid] | 14% | 14% | Inactive | Inactive |  |  |  | 
CN(C)S(=O)(=O)c1cc(C(=O)O)ccc1NCCCCCCCC(F)(F)F [Compound 3.17, 3-(dimethylsulfamoyl)-4-(8,8,8-trifluorooctylamino) benzoic acid] | 46% | 46% |  |  | 37% |  |  | better than bumetanide and furosemide
CCCCCCNc1ccc(C(=O)O)cc1S(N)(=O)=O [Compound 2.7, 4-(hexylamino)-3-sulfamoyl-benzoic acid] | 10% | 10% |  |  | 4% |  |  | 
CCCCCCCCNc1ccc(C(=O)O)cc1S(=O)(=O)N(C)C [Compound 3.13, 3-(dimethylsulfamoyl)-4-(octylamino)benzoic acid] | 45% | 45% | Inactive | Inactive |  |  |  | 
CCCCCCNc1ccc(C(=O)O)cc1S(=O)(=O)N(C)C [Compound 3.12, 3-(dimethylsulfamoyl)-4-(hexylamino)benzoic acid] | 13% | 13% |  |  | 8% |  |  | 
